{"source": "paper PMC6537893", "about": "(Biochemistry, 2019)", "biological_target": "T1, GoxA (Pseudoalteromonas luteoviolacea, UniProt A0A161XU12)", "T1 sequence (A0A161XU12 1-816)": "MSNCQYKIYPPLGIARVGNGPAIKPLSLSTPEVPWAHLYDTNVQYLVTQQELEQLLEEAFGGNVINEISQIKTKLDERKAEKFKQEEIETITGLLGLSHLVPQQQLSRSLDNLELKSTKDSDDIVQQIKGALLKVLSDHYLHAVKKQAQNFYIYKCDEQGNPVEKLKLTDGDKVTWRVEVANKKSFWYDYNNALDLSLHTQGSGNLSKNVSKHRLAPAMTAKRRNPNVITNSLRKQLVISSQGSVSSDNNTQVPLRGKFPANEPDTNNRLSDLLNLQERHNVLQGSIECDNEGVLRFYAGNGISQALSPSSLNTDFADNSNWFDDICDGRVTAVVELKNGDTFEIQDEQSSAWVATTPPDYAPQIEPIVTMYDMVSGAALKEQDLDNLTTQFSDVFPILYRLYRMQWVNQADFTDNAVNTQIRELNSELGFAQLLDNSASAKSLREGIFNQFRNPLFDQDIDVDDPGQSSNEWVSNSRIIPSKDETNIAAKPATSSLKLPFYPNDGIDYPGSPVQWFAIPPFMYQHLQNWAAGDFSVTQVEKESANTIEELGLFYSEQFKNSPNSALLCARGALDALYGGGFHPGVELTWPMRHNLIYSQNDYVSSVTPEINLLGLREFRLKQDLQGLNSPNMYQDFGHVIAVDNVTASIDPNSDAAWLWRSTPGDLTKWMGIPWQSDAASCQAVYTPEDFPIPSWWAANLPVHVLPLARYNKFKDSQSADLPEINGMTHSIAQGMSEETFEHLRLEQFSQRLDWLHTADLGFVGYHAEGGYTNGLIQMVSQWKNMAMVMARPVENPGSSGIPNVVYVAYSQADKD", "test": "anaerobic absorbance titration at […] nm, fit to allosteric binding equation", "data": [{"compound": "NCC(=O)O", "note": "[glycine]", "values": [{"measurement": "Kd", "value": "103 ± 3", "unit": "µM"}]}]}
